Values quoted from earlier work as cited in US20190015446A1, “MEDICINAL COMPOSITION FOR IMPROVING PROGNOSIS AFTER RESTART OF PATIENT'S OWN HEARTBEAT” (KEIO UNIVERSITY, priority 2015, published 2019).

Legend:
[1] = test system: healthy persons; conditions: hydrogen gas 49%
[2] = test system: rats after cardiopulmonary arrest resuscitation; conditions: inhalation from before to immediately after return of spontaneous circulation

[HH] [hydrogen gas]
Adverse reaction on inhalation [1]: no adverse reaction | Brain and heart functions and vital prognosis after cardiopulmonary arrest resuscitation [2]: can improve brain and heart functions and vital prognosis
